From patent US10131690B2, “C6S specific transporter molecules” (PHI PHARMA SA, priority 2014, dated 2018)
Where a SMILES comes first, the peptide text is derived from it. Where no end group is shown, it is not given here. [ ]: non-standard residue; d: D form. 3'AdT = not defined here

Legend:
[1] = stability in fetal calf serum (estimation of in vivo stability); format: in vitro ADME; details: 37° C.; for degradation in fetal calf serum: 6 hr
Procedure: The stability of peptides of the invention was estimated by mixing the peptides with fetal calf serum and incubating at 37° C. for 6 hr. Samples were tested at both 0 and 6 hours.

MDCK cells = test: viability of MDCK cell cultures by trypan blue exclusion; format: cell-based; details: 96 hour incubation, 0.5 μM to 10 μM, FIG. 9
Procedure: The activity of peptides of the invention as targeting moieties was tested in vitro in preliminary studies using cells lines expressing C6S. The nucleoside analog 3′ amino deoxythymidine (3′AdT) was conjugated to the amino-terminus of the peptide “RYK” (RYKvFIKYRh (SEQ ID NO:8)) using a single D-Glu residue (3′AdT-e-RYK).
Confluent cultures of MDCK were passaged at 1/20 dilution and exponentionally growing cells were incubated for 96 hours with concentrations of the nucleoside analog conjugates ranging from 0.5 μM to 10 μM. Viability was subsequently assessed using trypan blue exclusion.

[2] = test system: heparan sulfate (HS), chondroitin-4-sulfate (C4S), keratin sulfate (KS), HA; test: modified ELISA, binding to C6S compared with other proteoglycans; details: KS (FIG. 5), HS and HA (FIG. 6B)
Procedure: (§1) The binding of the nine-mer peptides of the invention to C6S as predicted by the models, in particular, as compared to the binding to other proteoglycans was tested using a modified ELISA protocol. ELISA plates were coated overnight with 1 mg/ml of heparin sulfate (HS), chondroitin-4-sulfate (C4S), chondroitin-6-sulfate (C6S) or keratin sulfate (KS) in PBS. The wells were then washed with PBS and incubated for 1 hour at room temperature with 1 mg/ml of an exemplary peptide of the invention having the sequence RYKvFIKYRh (“RYK-C6S”; SEQ ID NO:7) or a standard TAT peptide. The plates were then thoroughly washed with PBS and subsequently photographed with a LUMASCOPE™ luminescent microscope. Images were then quantified using the ImageJ software (FIG. 5).
(§2) The impact of sequence variation on specific binding was also investigated with select peptides using the above described modified ELISA.

[3] = test system: chondroitin-6-sulfate (C6S); test: modified ELISA, binding of peptides to plate-coated C6S; details: plates coated with 1 mg/ml C6S; 1 mg/ml peptide, 1 hour, room temperature; FIG. 5, 6A, 6B
Procedure: as §1
The same modified ELISA protocol was used to examine the impact on the specific binding to C6S by modifying the freely-selectable positions 2, 4, 6, 8 and (5 or 7).
as §2

In the case of `N=C(N)NCCC[C@H](NC(=O)[C@H](Cc1ccc(O)cc1)NC(=O)[C@H](CCCCN)NC(=O)[C@H](Cc1c[nH]c2ccccc12)NC(=O)[C@H](CO)NC(=O)CNC(=O)[C@H](CCCCN)NC(=O)[C@H](Cc1ccccc1)NC(=O)[C@@H](N)CCCNC(=N)N)C(=O)O` [RFKGSWKYR] (H-RFKGSWKYR-OH; N-terminus and C-terminus assumed), the “degradation in fetal calf serum” value [1] is reported as “completely degraded”.
In the case of `CC[C@H](C)[C@H](NC(=O)[C@H](Cc1ccccc1)NC(=O)[C@H](NC(=O)[C@H](CCCCN)NC(=O)[C@H](Cc1ccc(O)cc1)NC(=O)[C@@H](N)CCCNC(=N)N)C(C)C)C(=O)N[C@@H](CCCCN)C(=O)N[C@@H](Cc1ccc(O)cc1)C(=O)N[C@@H](CCCNC(=N)N)C(=O)N[C@H](Cc1c[nH]cn1)C(=O)O` [RYK-C6S, RYKvFIKYRh] (H-RYK[dV]FIKYR[dH]-OH; N-terminus and C-terminus assumed), the “degradation in fetal calf serum” value [1] is reported as “no degradation” and the remaining at 6 h ([1]; fetal calf serum, 6 hours) is reported as 100%.
With “D-linked conjugate: 3′AdT conjugated to the amino-terminus of the peptide RYK (RYKvFIKYRh) using a single D-Glu residue ({3'AdT}-[dE]RYK[dV]FIKYR[dH]; reading uncertain; also: printed as RYKvFIKYRh)” the “concentration with substantial effects on viability” value (MDCK cells) was no less than 0.5 µM.
In the case of RGKPRFYQR, the “selectivity of binding for C6S over other proteoglycans” value [2] is reported as “either eliminated binding activity to any proteoglycan or eliminated the specificity to C6S”.
With “RKKRRQRR (Artificial TAT peptide control) [standard TAT peptide]” the “binding to C6S” value [3] was “increases in binding that were likely non-selective”.
For RRRRRRRRR [pure arginine 9-mer], the “binding to C6S” value [3] was “increases in binding that were likely non-selective”.
In the case of “RYFvRIKYR (RYF[dV]RIKYR) [control peptide, replacement of Lys3 with a Phe]”, the “binding to C6S” value [3] is reported as “eliminated binding to C6S”.
With “RYKvFIKPRh (RYK[dV]FIKPR[dH]) [control peptide with proline at position 8]” the “binding to C6S” value [3] was “eliminated binding activity”.
